{"source": "BigSolDB 2.1"}
{"smiles": "CC(=O)Nc1ccc(/C=N/NC(N)=S)cc1", "values": [{"measurement": "solubility (mole fraction)", "setting": "in n-hexane, 288.15 K", "result": "5.55e-06"}, {"measurement": "solubility (mole fraction)", "setting": "in n-hexane, 293.15 K", "result": "7.25e-06"}, {"measurement": "solubility (mole fraction)", "setting": "in n-hexane, 298.15 K", "result": "1.03e-05"}, {"measurement": "solubility (mole fraction)", "setting": "in n-hexane, 303.15 K", "result": "1.34e-05"}, {"measurement": "solubility (mole fraction)", "setting": "in n-hexane, 308.15 K", "result": "1.75e-05"}, {"measurement": "solubility (mole fraction)", "setting": "in n-hexane, 313.15 K", "result": "2.21e-05"}, {"measurement": "solubility (mole fraction)", "setting": "in n-hexane, 318.15 K", "result": "2.93e-05"}, {"measurement": "solubility (mole fraction)", "setting": "in n-octanol, 288.15 K", "result": 0.00038}, {"measurement": "solubility (mole fraction)", "setting": "in n-octanol, 293.15 K", "result": 0.000439}, {"measurement": "solubility (mole fraction)", "setting": "in n-octanol, 298.15 K", "result": 0.000503}, {"measurement": "solubility (mole fraction)", "setting": "in n-octanol, 303.15 K", "result": 0.00058}, {"measurement": "solubility (mole fraction)", "setting": "in n-octanol, 308.15 K", "result": 0.000673}, {"measurement": "solubility (mole fraction)", "setting": "in n-octanol, 313.15 K", "result": 0.000762}, {"measurement": "solubility (mole fraction)", "setting": "in n-octanol, 318.15 K", "result": 0.000863}]}
